This note sets out measurements from ChEMBL document CHEMBL4196076, “An access to a library of novel triterpene derivatives with a promising pharmacological potential by Ugi and Passerini multicomponent reactions” (Eur J Med Chem, 2018).

Usually EC50 stands for the concentration at which the effect is half-maximal. Higher therefore signals a less potent agent.

One data set has as its system FaDu. In words: Cytotoxicity against human FADU cells after 96 hrs by sulforhodamine-B assay. The class given is functional, cell-based.
The subject of data set [1] is A2780. As to the kind of experiment: Induction of apoptosis in human A2780 cells assessed as apoptotic cells at 2 uM after 48 hrs by Annexin V-FITC/propidium iodide staining-based flow cytometric analysis (reference value: 2.8 +/- 2.1%). The class given is functional. A general note: In flow cytometry, cells or beads pass a laser one at a time.
Another data set relates to HT-29. In words: Cytotoxicity against human HT-29 cells after 96 hrs by sulforhodamine-B assay. The class given is functional, cell-based. To be noted: HT-29, 96 h. On the technique in general: The SRB assay estimates cell density from bound dye.
The test system of data set [2] is A2780. As to the kind of experiment: Cytotoxicity against human A2780 cells after 96 hrs by sulforhodamine-B assay. It counts as functional, cell-based. To be noted: A2780, 96 h.
In the next data set the test system is MCF7. In words: Cytotoxicity against human MCF7 cells after 96 hrs by sulforhodamine-B assay. It counts as functional, cell-based. As to conditions: MCF7, 96 h.
The next data set deals with A549. In words: Cytotoxicity against human A549 cells after 96 hrs by sulforhodamine-B assay. The class given is functional, cell-based. As to conditions: A549, 96 h.
Another data set concerns 518A2. In words: Cytotoxicity against human 518A2 cells after 96 hrs by sulforhodamine-B assay. The class given is functional, cell-based. As to conditions: 518A2, 96 h.
In data set [3] the test system is A2780. In words: Cell cycle arrest in human A2780 cells assessed as accumulation at G0/G1 phase at 2 uM after 48 hrs by propidium iodide/RNase-staining based flow cytometric analysis (reference value: 57.5 +/- 4.5%). It counts as functional.
Data set [4] has as its system A2780. As to the kind of experiment: Induction of apoptosis in human A2780 cells assessed as vital cells at 2 uM after 48 hrs by Annexin V-FITC/propidium iodide staining-based flow cytometric analysis (reference value: 78.4 +/- 2.1%). The class given is functional.
For the next data set, the system named is NIH3T3. As to the kind of experiment: Cytotoxicity against mouse NIH/3T3 cells after 96 hrs by sulforhodamine-B assay. The class given is cell-based. As to conditions: NIH3T3, 96 h.
The test system of data set [5] is A2780. In words: Cell cycle arrest in human A2780 cells assessed as accumulation at S phase at 2 uM after 48 hrs by propidium iodide/RNase-staining based flow cytometric analysis (reference value: 29.6 +/- 3.1%). The class given is functional.
Data set [6] concerns A2780. In words: Induction of apoptosis in human A2780 cells assessed as secondary necrotic cells at 2 uM after 48 hrs by Annexin V-FITC/propidium iodide staining-based flow cytometric analysis (reference value: 8.2 +/- 0.7%). It counts as functional.
Data set [7] has as its system A2780. In words: Induction of apoptosis in human A2780 cells assessed as necrotic cells at 2 uM after 48 hrs by Annexin V-FITC/propidium iodide staining-based flow cytometric analysis (reference value: 10.6 +/- 1.2%). It counts as functional.
For data set [8], the system named is A2780. As to the kind of experiment: Cell cycle arrest in human A2780 cells assessed as accumulation at sub-G1 phase at 2 uM after 48 hrs by propidium iodide/RNase-staining based flow cytometric analysis. It counts as functional.
Data set [9] deals with A2780. In words: Cell cycle arrest in human A2780 cells assessed as accumulation at G2/M phase at 2 uM after 48 hrs by propidium iodide/RNase-staining based flow cytometric analysis (reference value: 12.9 +/- 1.4%). The class given is functional.
A short description of data set [10]: Selectivity index, ratio of EC50 for mouse NIH/3T3 cells to EC50 for human A2780 cells. It counts as toxicity. As to conditions: NIH/3T3 cells and A2780 cells, read-out: Ratio EC50.

Turning to `C=CCN(CC(=O)NC(C)(C)C)C(=O)[C@]12CCC(C)(C)C[C@H]1C1=CC[C@@H]3[C@@]4(C)C[C@@H](OC(C)=O)[C@H](OC(C)=O)C(C)(C)[C@@H]4CC[C@@]3(C)[C@]1(C)CC2`, the EC50 in the data set on FaDu came to 4.8 µM; in the data set with HT-29, 3.9 µM; with A2780 [2], 0.5 µM; in the data set on MCF7, 4.1 µM; in the data set with A549, 4.4 µM; with 518A2, 2.9 µM. The same molecule yielded an EC50 with NIH3T3 of 7.8 µM. Further, the Activity in the data set on A2780 [1] came to 9.9%; in the data set on A2780 [3], 56.8%; with A2780 [4], 61.7%; in the data set on A2780 [5], 31.7%; with A2780 [6], 14.6%; in the data set on A2780 [7], 13.7%. For the same molecule, the figures for the Activity with A2780 [8] and with A2780 [9] were 5.3% and 6.3%, respectively.

On to `COC(=O)CNC(=O)CN(Cc1ccoc1)C(=O)[C@]12CCC(C)(C)C[C@H]1C1=CC[C@@H]3[C@@]4(C)CC[C@H](OC(C)=O)C(C)(C)[C@@H]4CC[C@@]3(C)[C@]1(C)CC2`, for which the EC50 with FaDu turned out to be 5.9 µM; in the data set on HT-29 it was 14.3 µM; in the data set with A2780 [2] it was 3.5 µM; in the data set on MCF7, 7 µM; with A549, 6.5 µM; in the data set on 518A2, 6.5 µM. Further, in the data set on NIH3T3, it took 8.9 µM to reach a half-maximal effect (EC50). For the same molecule, the selectivity ratio in [10] came to 2.5.

Take `C=CCN(CC(=O)NCC(=O)OC)C(=O)[C@]12CCC(C)(C)C[C@H]1C1=CC[C@@H]3[C@@]4(C)CC[C@H](OC(C)=O)C(C)(C)[C@@H]4CC[C@@]3(C)[C@]1(C)CC2`: the half-maximal effective concentration (EC50) with FaDu is 12.2 µM; with HT-29 it was 11.1 µM; in the data set with A2780 [2], 3.5 µM; with MCF7, 4.6 µM; in the data set with A549, 6.3 µM; in the data set with 518A2, 7.7 µM. Further, a half-maximal effect in the data set on NIH3T3 (EC50) was put at 7.3 µM. The selectivity ratio in [10] is 2.1.

As to `CC(=O)O[C@H]1CC[C@]2(C)[C@H]3CC=C4[C@@H]5CC(C)(C)CC[C@]5(C(=O)N(CC(=O)NC(C)(C)C)Cc5ccccc5)CC[C@@]4(C)[C@]3(C)CC[C@H]2C1(C)C`, the EC50 in the data set on FaDu is 16 µM; in the data set with HT-29 it was above 30 µM; in the data set on A2780 [2] it was 2.7 µM; in the data set with MCF7, 14.1 µM; in the data set with A549 it was above 30 µM; with 518A2, 15 µM. In the data set with NIH3T3, the EC50 was above 30 µM. Moreover, the selectivity ratio in data set [10] is above 11.

Turning to `C=CCN(CC(=O)NCCCC)C(=O)[C@]12CCC(C)(C)C[C@H]1C1=CC[C@@H]3[C@@]4(C)CC[C@H](OC(C)=O)C(C)(C)[C@@H]4CC[C@@]3(C)[C@]1(C)CC2`, the half-maximal effective concentration (EC50) with FaDu is 16.1 µM; with HT-29, above 30 µM; in the data set with A2780 [2], 3.1 µM; with MCF7, above 30 µM; with A549, above 30 µM; in the data set with 518A2 it was 15 µM. The molecule also showed an EC50 with NIH3T3 above 30 µM.

With `CC(=O)O[C@H]1CC[C@]2(C)[C@H]3CC=C4[C@@H]5CC(C)(C)CC[C@]5(C(=O)N(CC(=O)NCc5ccccc5)C(C)C)CC[C@@]4(C)[C@]3(C)CC[C@H]2C1(C)C`, the EC50 in the data set with FaDu is 10.1 µM; in the data set with HT-29 it was 14.1 µM; in the data set on A2780 [2], 8.3 µM; with MCF7, 9.7 µM; in the data set with A549 it was 14.9 µM; in the data set with 518A2, 20.9 µM. Moreover, the EC50 with NIH3T3 worked out at 10.2 µM.

As for `CCCCNC(=O)CN(Cc1ccoc1)C(=O)[C@]12CCC(C)(C)C[C@H]1C1=CC[C@@H]3[C@@]4(C)CC[C@H](OC(C)=O)C(C)(C)[C@@H]4CC[C@@]3(C)[C@]1(C)CC2`, the EC50 in the data set on FaDu was 17.9 µM; in the data set on HT-29, above 30 µM; in the data set with A2780 [2], 5.6 µM; in the data set with MCF7, 13.9 µM; in the data set with A549, 16.2 µM; in the data set with 518A2, 11.3 µM. Moreover, the EC50 with NIH3T3 is above 30 µM.

Regarding `CC1(C)CC[C@]2(C(=O)N(CC(=O)NCc3ccccc3)Cc3ccoc3)CC[C@]3(C)C(=CC[C@@H]4[C@@]5(C)CC[C@H](O)C(C)(C)[C@@H]5CC[C@]43C)[C@@H]2C1`, the EC50 with FaDu is above 30 µM; in the data set on HT-29, above 30 µM; in the data set on A2780 [2], 13.2 µM; in the data set on MCF7, 12.6 µM; with A549, above 30 µM; in the data set on 518A2, above 30 µM. The EC50 in the data set on NIH3T3 is above 30 µM.

In the case of `CCCCN(CC(=O)NCc1ccccc1)C(=O)[C@]12CCC(C)(C)C[C@H]1C1=CC[C@@H]3[C@@]4(C)CC[C@H](OC(C)=O)C(C)(C)[C@@H]4CC[C@@]3(C)[C@]1(C)CC2`, the EC50 in the data set on FaDu was 19.8 µM; with HT-29, above 30 µM; in the data set on A2780 [2], 4.4 µM; in the data set on MCF7, above 30 µM; with A549 it was above 30 µM; in the data set on 518A2, 8.2 µM. Also, the EC50 in the data set on NIH3T3 was above 30 µM.

For `CC1(C)CC[C@]2(C(=O)O)CC[C@]3(C)C(=CC[C@@H]4[C@@]5(C)CC[C@H](O)C(C)(C)[C@@H]5CC[C@]43C)[C@@H]2C1` [OLEANOLIC_ACID], the EC50 with FaDu was 66.7 µM; in the data set on HT-29, 44.9 µM; in the data set with A2780 [2], 58.2 µM; in the data set on MCF7, 49.1 µM; with A549, 64.1 µM; in the data set with 518A2, 61.3 µM. In the data set on NIH3T3, this molecule gave a 50% effective concentration (EC50) of 57.9 µM.

On to `CC(=O)O[C@@H]1C[C@]2(C)[C@H]3CC=C4[C@@H]5CC(C)(C)CC[C@]5(C(=O)N(CC(=O)NCc5ccccc5)Cc5ccoc5)CC[C@@]4(C)[C@]3(C)CC[C@H]2C(C)(C)[C@H]1OC(C)=O`, for which the EC50 amounted to 14.1 µM in the data set on FaDu; 9.9 µM with HT-29; 2.1 µM in the data set on A2780 [2]; 3.4 µM with MCF7; 5.4 µM with A549; 13.1 µM with 518A2. A half-maximal effect with NIH3T3 (EC50) was put at 6.5 µM.

With `CC(=O)O[C@H]1CC[C@]2(C)[C@H]3CC=C4[C@@H]5CC(C)(C)CC[C@]5(C(=O)N(CC(=O)NC(C)(C)C)Cc5cccc(F)c5)CC[C@@]4(C)[C@]3(C)CC[C@H]2C1(C)C`, the EC50 was above 30 µM in the data set with FaDu; above 30 µM with HT-29; 10.4 µM with A2780 [2]; above 30 µM in the data set on MCF7; above 30 µM in the data set on A549; above 30 µM in the data set with 518A2. In the data set with NIH3T3, this molecule showed an EC50 above 30 µM.

For `CN(CC(=O)NC(C)(C)C)C(=O)[C@]12CCC(C)(C)C[C@H]1C1=CC[C@@H]3[C@@]4(C)CC[C@H](O)C(C)(C)[C@@H]4CC[C@@]3(C)[C@]1(C)CC2`, the EC50 came to 8.1 µM with FaDu; 13.8 µM with HT-29; 11 µM in the data set with A2780 [2]; 12.2 µM in the data set on MCF7; 8.6 µM in the data set on A549; 7.9 µM with 518A2. Moreover, the EC50 with NIH3T3 amounted to 11.2 µM.

With `CCCCNC(=O)CN(Cc1ccccc1)C(=O)[C@]12CCC(C)(C)C[C@H]1C1=CC[C@@H]3[C@@]4(C)CC[C@H](OC(C)=O)C(C)(C)[C@@H]4CC[C@@]3(C)[C@]1(C)CC2`, the EC50 in the data set on FaDu is 22.7 µM; in the data set on HT-29, above 30 µM; in the data set with A2780 [2] it was 3 µM; in the data set on MCF7, 22.1 µM; in the data set on A549, above 30 µM; in the data set with 518A2, above 30 µM. The molecule also registered an EC50 in the data set on NIH3T3 above 30 µM.

As to `CC(=O)O[C@H]1CC[C@]2(C)[C@H]3CC=C4[C@@H]5CC(C)(C)CC[C@]5(C(=O)N(CC(=O)NC(C)C)Cc5ccoc5)CC[C@@]4(C)[C@]3(C)CC[C@H]2C1(C)C`, the EC50 in the data set on FaDu stood at 12.5 µM; in the data set on HT-29, 9.6 µM; with A2780 [2], 3.6 µM; in the data set with MCF7, 16.7 µM; with A549 it was 7.5 µM; in the data set with 518A2, 6.5 µM. Besides, it took 10.1 µM to reach a half-maximal effect with NIH3T3 (EC50).

As for `C=CCN(CC(=O)NC(C)(C)C)C(=O)[C@]12CCC(C)(C)C[C@H]1C1=CC[C@@H]3[C@@]4(C)CC[C@H](O)C(C)(C)[C@@H]4CC[C@@]3(C)[C@]1(C)CC2`, the EC50 in the data set with FaDu is 26 µM; with HT-29, 9.9 µM; with A2780 [2], 10.5 µM; in the data set on MCF7, 7 µM; in the data set on A549 it was 27.7 µM; in the data set on 518A2, 24.4 µM. This molecule also returned an EC50 in the data set with NIH3T3 of 15.5 µM.
